For one test, the target named is APC2/APC11 (Homo sapiens, UniProt Q9NYG5+Q9UJX6). As to the kind of experiment: biochemical.
The target of the next test is MDM2/P53 (Homo sapiens, UniProt Q00987). Nature of the test: biochemical.

Results on 34 compounds are retold here after patent publication US20060276520A1 (priority 2002, published 2006).

Values joined by “and” are separate entries in the source; they are usually repeats but may differ in a detail not shown here. Equal values may be shown once.

Sequence of APC2/APC11 (Q9UJX6 whole entry): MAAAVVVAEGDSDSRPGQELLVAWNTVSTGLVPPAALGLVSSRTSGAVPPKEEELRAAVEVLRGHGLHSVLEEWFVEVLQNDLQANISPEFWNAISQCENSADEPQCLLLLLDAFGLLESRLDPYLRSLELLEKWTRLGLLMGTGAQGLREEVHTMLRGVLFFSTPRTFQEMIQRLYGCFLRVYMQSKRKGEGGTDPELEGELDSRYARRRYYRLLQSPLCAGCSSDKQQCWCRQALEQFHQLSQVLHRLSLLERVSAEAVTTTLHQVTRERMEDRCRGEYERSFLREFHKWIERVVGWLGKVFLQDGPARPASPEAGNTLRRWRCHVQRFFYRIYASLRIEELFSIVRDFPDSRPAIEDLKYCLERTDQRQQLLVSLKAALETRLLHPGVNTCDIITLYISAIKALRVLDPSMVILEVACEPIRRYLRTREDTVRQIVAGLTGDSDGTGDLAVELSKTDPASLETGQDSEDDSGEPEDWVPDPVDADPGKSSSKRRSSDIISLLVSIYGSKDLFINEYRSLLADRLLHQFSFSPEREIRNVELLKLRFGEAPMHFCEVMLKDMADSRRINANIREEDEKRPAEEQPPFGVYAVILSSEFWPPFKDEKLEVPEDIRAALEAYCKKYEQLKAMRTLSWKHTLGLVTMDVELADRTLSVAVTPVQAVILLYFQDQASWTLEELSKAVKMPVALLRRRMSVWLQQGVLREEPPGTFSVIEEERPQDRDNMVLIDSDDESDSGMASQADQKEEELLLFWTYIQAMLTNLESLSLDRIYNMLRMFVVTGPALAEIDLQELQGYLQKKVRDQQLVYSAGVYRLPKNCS
Sequence of APC2/APC11 (Q9NYG5 whole entry): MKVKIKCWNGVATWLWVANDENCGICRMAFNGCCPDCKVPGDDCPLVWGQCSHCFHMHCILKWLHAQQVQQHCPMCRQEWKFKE
Sequence of MDM2/P53 (Q00987 whole entry): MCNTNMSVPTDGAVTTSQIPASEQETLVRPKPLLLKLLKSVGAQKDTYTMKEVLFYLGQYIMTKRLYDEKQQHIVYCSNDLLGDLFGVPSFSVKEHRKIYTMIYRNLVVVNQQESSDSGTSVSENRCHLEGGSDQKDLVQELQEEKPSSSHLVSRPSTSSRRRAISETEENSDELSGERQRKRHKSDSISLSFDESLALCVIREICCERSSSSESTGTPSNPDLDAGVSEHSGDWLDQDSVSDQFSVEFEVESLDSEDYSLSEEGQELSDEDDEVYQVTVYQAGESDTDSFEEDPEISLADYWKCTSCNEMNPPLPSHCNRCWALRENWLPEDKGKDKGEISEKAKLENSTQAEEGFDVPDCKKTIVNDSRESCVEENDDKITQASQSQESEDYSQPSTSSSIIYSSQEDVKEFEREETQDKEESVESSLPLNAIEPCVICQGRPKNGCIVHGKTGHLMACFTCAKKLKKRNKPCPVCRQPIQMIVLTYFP

As to `CN1C(=O)/C(=C/c2ccc(-c3ccc(S(N)(=O)=O)cc3)o2)SC1=S` [Compound 23, 4-{5-[(Z)-(3-methyl-4-oxo-2-thioxo-1,3-thiazolidin-5-ylidene)methyl]-2-furyl}benzenezulffonamide], the IC50 (in general, the concentration that gives 50% inhibition) worked out at 5.15 µM against APC2/APC11 and 7.94 µM against MDM2/P53. The matching figures for `O=C(O)CCN1C(=O)/C(=C/c2ccc(-c3ccc(Br)cc3)o2)SC1=S` [Compound 25, 3-((5Z)-5-{[5-(4-bromophenyl)-2-furyl]methylene}-4-oxo-2-thioxo-1,3-thiazolidin-3-yl)propanoic acid]: 2.06 µM and 5.64 µM. `O=C1/C(=C/c2ccc(-c3ccc(Br)cc3)o2)SC(=S)N1c1ccccc1` [Compound 27, (5Z)-5-{[5-(4-bromophenyl)-2-furyl]methylene}-3-phenyl-2-thioxo-1,3-thiazolidin-4-one] showed a half-inhibitory concentration (IC50) on MDM2/P53 of 10.7 µM.

On to `O=C1/C(=C/c2ccc(-c3ccccc3)o2)SC(=S)N1c1ccccc1` [Compound 28, (5Z)-3-phenyl-5-[(5-phenyl-2-furyl)methylene]-2-thioxo-1,3-thiazolidin-4-one], for which the IC50 against MDM2/P53 worked out at 0.8 µM. Regarding `CN1C(=O)/C(=C\c2ccc(-c3ccc(Cl)cc3)o2)SC1=S` [Compound 29, (5E)-5-{[5-(4-chlorophenyl)-2-furyl]methylene}-3-methyl-2-thioxo-1,3-thiazolidin-4-one], the IC50 amounted to 1.44 µM against APC2/APC11 and 1.21 µM at MDM2/P53. With `O=C1/C(=C/c2ccc(-c3cccc4ccccc34)o2)SC(=S)N1Cc1ccccc1` [Compound 30, (5Z)-3-benzyl-5-{[5-(1-nephthyl)-2-furyl]methylene}-2-thioxo-1,3-thiazolidin-4-one], the IC50 came out at 5.49 µM at APC2/APC11 and 2.32 µM against MDM2/P53. As to `CN1C(=O)/C(=C/c2ccc(-c3cccc4ccccc34)o2)SC1=S` [Compound 33, (5Z)-3-methyl-5-{[5-(1-naphtthyl)-2-furyl]methylene}-2-thioxo-1,3-thiazolidin-4-one], on MDM2/P53, 6.1 µM corresponded to half-maximal inhibition (IC50). Compound `O=C1/C(=C\c2ccc(-c3ccc(Cl)cc3)o2)SC(=S)N1C1CCS(=O)(=O)C1` (centres unmarked) [Compound 40, (5E)-5-{[5-(4-chlorophenyl)-2-furyl]methylene}-3-(1,1-dioxidotetrahydro-3-thienyl)-2-thioxo-1,3-thiazolidin-4-one] registered an IC50 against MDM2/P53 of 5.52 µM. As to `O=C(O)c1cccc(-c2ccc(/C=C3/SC(=S)N(c4cccc(Cl)c4)C3=O)o2)c1` [Compound 46, 3-(5-{(E)-[3-(3-chlorophenyl)-4-oxo-2-thioxo-1,3-thiazolidin-5-ylidene]methyl}-2-furyl)benzoic acid], the IC50 against APC2/APC11 was 0.91 µM; at MDM2/P53, 4.92 µM. For the compound `CN1C(=O)/C(=C\c2ccc(-c3cccc(Br)c3)o2)SC1=S` [Compound 50, (5E)-5-{[5-(3-bromophenyl)-2-furyl]methylene]-3-methyl-2-thioxo-1,3-thiazolidin-4-one], the IC50 stood at 3.7 µM at APC2/APC11 and 2.69 µM against MDM2/P53. The matching figures for `Cc1c(N2C(=O)/C(=C\c3ccc(-c4ccc(Br)cc4)o3)SC2=S)c(=O)n(-c2ccccc2)n1C` [Compound 51, (5E)-5-{[5-(4-bromophenyl)-2-furyl]methylene}-3-(1,5-dimethyl-3-oxo-2-phenyl-2,3-dihydro-1H-pyrazol-4-yl)-2-thioxo-1,3-thiazolidin-4-one]: 12.1 µM and 9.24 µM. As for `O=C1/C(=C\c2ccc(-c3cccc(C(F)(F)F)c3)o2)SC(=S)N1Cc1ccccc1` [Compound 54, (5E)-3-benzyl-2-thioxo-5-({5-[3-(trifluoromethyl)phenyl]-2-furyl}methylene)-1,3-thiazolidin-4-one], the IC50 at APC2/APC11 amounted to 0.035 µM; against MDM2/P53, 0.074 µM. At APC2/APC11, `C=CCN1C(=O)/C(=C\c2ccc(-c3cccc(C(F)(F)F)c3)o2)SC1=S` [Compound 63, (5E)-3-allyl-2-thioxo-5-({5-[3-(trifluoromethyl)phenyl]-2-furyl}methylene)-1,3-thiazolidin-4-one] returned an IC50 of 0.2 µM. This counts as sub-micromolar. At MDM2/P53, `CCOc1ccc(N2C(=O)/C(=C\c3ccc(-c4ccc(Br)cc4)o3)SC2=S)cc1` [Compound 69, (5E)-5-{[5-(4-bromophenyl)-2-furyl]mthylene}-3-(4-ethoxyphenyl)-2-thioxo-1,3-thiazolidin-4-one] displayed a 50% inhibitory concentration (IC50) of 14.2 µM. In other words, the double-digit micromolar range. Compound `O=C1/C(=C\c2ccc(-c3ccc([N+](=O)[O-])cc3)o2)SC(=S)N1CCc1ccccc1` [Compound 75, (5E)-5-{[5-(4-nitrophenyl)-2-furyl]methylene}-3-(2-phenylethyl)-2-thioxo-1,3-thiazolidin-4-one] came in with an IC50 against MDM2/P53 of 13.6 µM. As to `O=C(O)CCN1C(=O)/C(=C/c2ccc(-c3ccc(Cl)cc3Cl)o2)SC1=S` [Compound 77, 3-((5Z)-5-{[5-(2,4-dichlorophenyl)-2-furyl]methylene}-4-oxo-2-thioxo-1,3-thiazolidin-3-yl)propanoic acid], at MDM2/P53, half-maximal inhibition (IC50) required 0.81 µM. Against the preceding compound, the IC50 is about 17-fold lower. In the case of `O=C(O)CN1C(=O)/C(=C\c2ccc(-c3ccc(Cl)c(Cl)c3)o2)SC1=S` [Compound 82, ((5E)-5-{[5-(3,4-dichlorophenyl)-2-furyl]methylene}-4-oxo-2-thioxo-1,3-thiazolidin-3-yl)acetic acid], the results for the IC50 at APC2/APC11 and at MDM2/P53 were 5 µM and 1.5 µM, respectively. Taken in the same sequence, the figures for `COc1ccc(N2C(=O)/C(=C\c3ccc(-c4ccc(Br)cc4)o3)SC2=S)cc1` [Compound 96, (5E)-5-{[5-(4-bromophenyl)-2-furyl]methylene}-3-(4-methoxyphenyl)-2-thioxo-1,3-thiazolidin-4-one] were 10 µM and 0.56 µM. As for `O=C1/C(=C\c2ccc(-c3cccc([N+](=O)[O-])c3)o2)SC(=S)N1Cc1ccccc1` [Compound 98, (5E)-3-benzyl-5-{[5-(3-nitrophenyl)-2-furyl]methylene}-2-thioxo-1,3-thiazolidin-4-one], half-maximal inhibition against MDM2/P53 (IC50) required 11.6 µM. `O=C1/C(=C\c2ccc(-c3ccccc3Cl)o2)SC(=S)N1C1CCS(=O)(=O)C1` (centres unmarked) [Compound 99, (5E)-5-{[5-(2-chlorophenyl)-2-furyl]methylene}-3-(1,1-dioxidotetrahydro-3-thienyl)-2-thioxo-1,3-thiazolidin-4-one]: the IC50 against MDM2/P53 is 0.21 µM.

The compound `NS(=O)(=O)c1ccc(-c2ccc(/C=C3\SC(=S)N(CCc4ccccc4)C3=O)o2)cc1` [Compound 103, 4-(5-{(Z)-[4-oxo-3-(2-phenylethyl)-2-thioxo-1,3-thiazolidin-5-ylidene]methyl}-2-furyl)benzenesulfonamide] yielded an IC50 against MDM2/P53 of 3.87 µM.

With `O=C(O)CN1C(=O)/C(=C\c2ccc(-c3ccc(Cl)cc3)o2)SC1=S` [Compound 145, ((5E)-5-{[5-(4-chlorophenyl)-2-furyl]methylene}-4-oxo-2-thioxo-1,3-thiazolidin-3-yl)acetic acid], it took 10 µM to reach half-maximal inhibition at APC2/APC11 (IC50). On to `O=C(O)CN1C(=O)/C(=C\c2ccc(-c3cccc(C(F)(F)F)c3)o2)SC1=S` [Compound 146, [(5E)-4-oxo-2-thioxo-5-({5-[3-(trifluoromethyl)phenyl]-2-furyl]methylene)-1,3-thiazolidin-3-yl]acetic acid], for which half-maximal inhibition against APC2/APC11 (IC50) was put at 10 µM. Turning to `O=C(O)c1cccc(-c2ccc(/C=C3\SC(=S)N(C4CCCCC4)C3=O)o2)c1` [Compound 176, 3-{5-[(Z)-(3-cyclohexyl-4-oxo-2-thioxo-1,3-thiazolidin-5-ylidene)methyl]-2-furyl}benzoic acid], the IC50 against APC2/APC11 is 0.4 µM and 0.7 µM. The same measure, in the same setting: with `CN1C(=O)/C(=C\c2ccc(-c3cccc([N+](=O)[O-])c3)o2)SC1=S` [Compound 183, (5E)-3-methyl-5-{[5-(3-nitrophenyl)-2-furyl]methylene}-2-thioxo-1,3-thiazolidin-4-one] the figure was 0.1 µM; with `O=C1/C(=C/c2ccc(-c3ccc([N+](=O)[O-])cc3)o2)SC(=S)N1Cc1ccccc1` [Compound 199, (5Z)-3-benzyl-5-{[5-(4-nitrophenyl)-2-furyl]methylene}-2-thioxo-1,3-thiazolidin-4-one], 0.1 µM. The compound `O=C1NC(=S)S/C1=C/c1ccc(-c2ccc(Cl)cc2)o1` [Compound 238, (5E)-5-{[5-(4-chlorophenyl)-2-furyl]methylene}-2-thioxo-1,3-thiazolidin-4-one] registered an IC50 against APC2/APC11 of 5 µM. With `O=C1/C(=C/c2ccc(-c3cccc([N+](=O)[O-])c3)o2)SC(=S)N1CC1CCCO1` (centres unmarked) [Compound 254, (5Z)-5-{[5-(3-nitrophenyl)-2-furyl]methylene}-3-(tetrahydrofuran-2-ylmethyl)-2-thioxo-1,3-thiazolidin-4-one], inhibition against MDM2/P53 was half-maximal at 24.8 µM (IC50).

On to `O=C(O)CCN1C(=O)/C(=C\c2ccc(-c3ccc(Cl)c(Cl)c3)o2)SC1=S` [Compound 256, 3-((5E)-5-{[5-(3,4-dichlorophenyl)-2-furyl]methylene}-4-oxo-2-thioxo-1,3-thiazolidin-3-yl)propanoic acid], for which half-maximal inhibition at MDM2/P53 (IC50) was put at 0.53 µM. Turning to `O=C1NC(=S)S/C1=C/c1ccc(-c2cc(Cl)ccc2Cl)o1` [Compound 270, (5E)-5-{[5-(2,5-dichlorophenyl)-2-furyl]methylene}-2-thioxo-1,3-thiazolidin-4-one], at APC2/APC11, half-maximal inhibition (IC50) required 3 µM. This lies in the single-digit micromolar range.

`O=C1/C(=C/c2ccc(-c3ccccc3Cl)o2)SC(=S)N1CCc1ccccn1` [Compound 278, (5Z)-5-{[5-(2-chlorophenyl)-2-furyl]methylene}-3-(2-pyridin-2-ylethyl)-2-thioxo-1,3-thiazolidin-4-one] registered an IC50 on MDM2/P53 of 5.21 µM. With `O=C1/C(=C/c2ccc(-c3ccccc3Cl)o2)SC(=S)N1Cc1ccc2c(c1)OCO2` [Compound 299, (5Z)-3-(1,3-benzodioxol-5-ylmethyl)-5-{[5-(2-chlorophenyl)-2-furyl]methylene}-2-thioxo-1,3-thiazolidin-4-one], the IC50 against MDM2/P53 was determined as 0.45 µM. On the same count and under the same terms, with `C[C@H](NC(=O)CN1C(=O)/C(=C/c2ccc(-c3ccccc3Cl)o2)SC1=S)C(=O)OC(C)(C)C` [Compound 302, tert-butyl N-[((5Z)-5-{[5-(2-chlorophenyl)-2-furyl]methylene}-4-oxo-2-thioxo-1,3-thiazolidin-3-yl)acetyl]alaninate] the figure was 4.6 µM; with `O=C1C(Cc2ccc(-c3ccccc3Cl)o2)SC(=S)N1Cc1ccc2c(c1)OCO2` (centres unmarked) [Compound 305, 3-(1,3-benzodioxol-5-ylmethyl)-5-{[5-(2-chlorophenyl)-2-furyl]methyl}-2-thioxo-1,3-thiazolidin-4-one], 10.8 µM.
